Results published in patent US20220348590A1, “CYCLOOXYGENASE-2 INHIBITORS AND USES THEREOF” (The Board Institute, Inc., priority 2019, published 2022).
Where two headings read alike, the source gives them in different places.

Legend:
[1] = molecular target: T1, ovine COX-1 (oCOX-1) (Ovis aries, UniProt P05979); assay: LCMS-based COX-1 enzymatic inhibition assay (PGE2 quantification); format: biochemical
T1 construct: purchased Cayman Chemicals (Ann Arbor, Mich.)
T1 sequence (P05979 25-600): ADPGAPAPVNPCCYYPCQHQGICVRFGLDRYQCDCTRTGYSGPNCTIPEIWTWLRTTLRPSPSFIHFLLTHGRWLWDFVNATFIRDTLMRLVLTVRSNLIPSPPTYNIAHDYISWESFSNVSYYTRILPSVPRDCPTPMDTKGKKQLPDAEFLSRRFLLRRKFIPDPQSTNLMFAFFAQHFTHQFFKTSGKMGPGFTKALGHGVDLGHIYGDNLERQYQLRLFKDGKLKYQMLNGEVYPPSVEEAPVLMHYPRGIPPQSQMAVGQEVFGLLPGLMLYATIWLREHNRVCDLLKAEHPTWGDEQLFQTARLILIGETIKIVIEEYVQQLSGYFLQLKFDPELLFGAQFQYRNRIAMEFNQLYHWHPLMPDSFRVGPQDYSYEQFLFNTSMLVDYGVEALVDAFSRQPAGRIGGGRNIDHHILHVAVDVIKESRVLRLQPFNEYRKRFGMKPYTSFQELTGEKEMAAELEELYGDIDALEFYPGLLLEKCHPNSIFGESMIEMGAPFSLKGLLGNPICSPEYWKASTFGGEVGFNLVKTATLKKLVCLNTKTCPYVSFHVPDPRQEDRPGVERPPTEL
Experimental: We have adapted a previously reported cyclooxygenase enzymatic assay utilizing LCMS quantification of PGE2 as the product of COX-1 and COX2 catalyzed conversion of arachidonic acid to evaluate the binding properties of newly synthesized ligands [Cao, 2011]. These optimized and miniaturized (384-well plates) LCMS-based COX-1 and COX2 enzymatic assays enabled us to quickly evaluate newly synthesized ligands for COX2 binding affinity and selectivity vs COX-1. Using a shorter ligand-enzyme incubation time in the LCMS assay (2 minutes vs 10 minutes) also permitted us to prioritize ligands with faster binding kinetics. Considering the relatively slow on-rate kinetics of known coxibs, due to their 3-step binding mechanism [Marnett, 2009], we believe that optimizing this critical parameter will be key to the successful development of a COX2 PET tracer. Using these enzymatic assays, we have evaluated>200 newly synthesized ligands against COX2 and >20 ligands against COX-1. Another critical property necessary for a good PET radiotracer is to have low non-specific binding (NSB) to increase the free fraction and maximize the signal to noise ratio. This property can be evaluated using in-vitro protein binding assays, and we have now evaluated>50 newly synthesized ligands in mouse, rat and human plasma protein binding (PPB) assays as well as >15 ligands in a mouse brain protein binding (BPB) assay.
Ovine COX-1 (oCOX-1), ovine COX2 (oCOX2), human recombinant COX2 (hCOX2), arachidonic acid, PGE2, d4-PGD2, and […] (labeled with deuterium atoms at positions 3 and 4) were purchased from Cayman Chemicals (Ann Arbor, Mich.). The cofactors (−)epinephrine and hematin, and the COX inhibitors indomethacin, resveratrol and diclofenac were purchased from Sigma-Aldrich (St. Louis, Mo.). Celecoxib was purchased from 3B PharmaChem International (Wuhan, China). All organic solvents were HPLC grade or better and were purchased from Thermo Fisher (Hanover Park, Ill.). Formic acid was purchased from EMD Chemicals (San Diego, Calif.). Purified water was prepared by using a Millipore Milli-Q purification system (Millipore, Billerica, Mass.). All other chemicals and solvents were ACS reagent grade, unless stated otherwise.
In an Eppendorf tube, 146 μL of 100 mM Tris.HCl (pH 8.0) buffer, 2 μL of 100 μM hematin (co-factor) and 10 μL of 40 mM L-epinephrine (co-factor) were mixed at room temperature. Next, 20 μL of Tris.HCl (pH 8.0) buffer containing 0.2 μg COX2 or 0.1 μg COX-1 (approximately 1 unit of enzyme; 1 unit COX utilizes 1 nmol 02/mg/min at 37° C.) was added, and the solution was incubated at room temperature for 2 min. A 2 μL aliquot of the COX inhibitor in DMSO was added to the enzyme solution and preincubated at 37° C. for 10 min. Negative controls were identical except that 2 μL aliquots of DMSO without inhibitor were used instead.
Each COX reaction was initiated by adding 20 μL of arachidonic acid in Tris.HCl (pH 8.0) buffer to give a final concentration of 5 μM; and the reaction was terminated after 2 min by adding 20 μL of 2.0 M HCl. The surrogate standards d4-PGE2 and d4-PGD2 (10 μL aliquot of 50 ng/mL solution in methanol) were added to correct for errors or degradation during sample handling and for variation in injection volume or instrument response during LC-MS-MS. After 30 min, PGE2, PGD2 and their surrogate standards were extracted from each incubation mixture using 800 μL hexane/ethyl acetate (50:50, v/v). The organic phase was removed, evaporated to dryness, and reconstituted in 100 μL methanol/water (50:50, v/v) for analysis using LC-MS-MS.
The concentration of PGE2 in each sample was measured using LC-MS-MS, and the percent of COX inhibition by each test solution was determined by comparing the amount of PGE2 produced in the experiment with that produced in the negative control incubation. The formation of PGD2 was measured for quality control purposes, since the levels of PGD2 should be proportional to those of PGE2. […]

[2] = molecular target: T2, human recombinant COX2 (hCOX2) (UniProt P35354); assay: LCMS-based COX2 enzymatic inhibition assay (PGE2 quantification); format: biochemical; design: COX2 2 minutes pge2/pge2d4 area ratio Avg; other: 2 minutes; readout pge2/pge2d4 area ratio; average; COX2 2 minutes pge2/pge2d4 area ratio Avg; LLE; average LLE; COX2 2 minutes pge2 area (counts) Avg; readout pge2 area (counts); other: 2 min; "ovine COX2 (oCOX2), human recombinant COX2 (hCOX2)"; conditions: for COX2 2 minutes pge2/pge2d4 area ratio Avg. LLE / COX2 2 minutes pge2 area (counts) Avg. LLE / COX2 10 minutes pge2 area (counts) Avg. LLE: average LLE; for IC50: average
T2 sequence (P35354 1-604): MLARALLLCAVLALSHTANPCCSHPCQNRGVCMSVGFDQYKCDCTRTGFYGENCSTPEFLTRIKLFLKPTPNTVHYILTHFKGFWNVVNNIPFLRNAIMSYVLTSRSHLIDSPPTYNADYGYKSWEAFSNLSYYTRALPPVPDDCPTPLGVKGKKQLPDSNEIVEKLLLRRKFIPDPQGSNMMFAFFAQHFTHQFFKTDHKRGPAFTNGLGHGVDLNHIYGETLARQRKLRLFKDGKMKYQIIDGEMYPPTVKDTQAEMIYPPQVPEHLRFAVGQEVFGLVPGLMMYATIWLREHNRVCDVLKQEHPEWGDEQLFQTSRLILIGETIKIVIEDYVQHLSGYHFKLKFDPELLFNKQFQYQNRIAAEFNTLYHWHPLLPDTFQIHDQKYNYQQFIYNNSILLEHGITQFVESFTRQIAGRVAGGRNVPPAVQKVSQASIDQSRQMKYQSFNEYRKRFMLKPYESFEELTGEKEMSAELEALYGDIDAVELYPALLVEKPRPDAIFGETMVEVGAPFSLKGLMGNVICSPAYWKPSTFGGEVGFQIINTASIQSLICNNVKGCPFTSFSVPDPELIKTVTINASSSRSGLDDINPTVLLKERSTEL
Method in brief: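 Ovine COX-1 (0.1 μg) or human recombinant COX2 (0.2 μg) in 100 mM Tris.HCl pH 8.0 with hematin and epinephrine, preincubated with inhibitor 10 min at 37 °C. Reaction with 5 μM arachidonic acid stopped after 2 min with HCl; PGE2 quantified by LC-MS-MS. IC50 from 12 concentrations in triplicate.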

[3] = 10 minutes, pge2/pge2d4 area ratio, head of this section not shown, inferred
[4] = 10 minutes, pge2 area (counts), head of this section not shown, inferred
[5] = 2 minutes, readout pge2/pge2d4 area ratio
[6] = 2 minutes, readout pge2/pge2d4 area ratio, read-out: COX2 2 minutes pge2/pge2d4 area ratio Avg. IC50
[7] = 2 minutes, readout pge2 area (counts)
[8] = 2 minutes, readout pge2 area (counts), read-out: COX2 2 minutes pge2 area (counts) Avg. IC50
[9] = 10 minutes, readout pge2 area (counts)
[10] = 10 minutes, readout pge2 area (counts), read-out: COX2 10 minutes pge2 area (counts) Avg. IC50
[11] = read-out: COX2 2 minutes pge2/pge2d4 area ratio Avg. IC50 (microM), 2 minutes, readout pge2/pge2d4 area ratio

| Compound | COX2 2 minutes pge2/pge2d4 area ratio Avg. LLE [2, 5] | IC50 [2, 6] [µM] | COX2 2 minutes pge2 area (counts) Avg. LLE [2, 7] | IC50 [2, 8] [µM] | IC50 [2, 11] [µM] | further results |
| --- | --- | --- | --- | --- | --- | --- |
| CS(=O)(=O)c1ccc(-c2ccc3ccn(Cc4ccco4)c3n2)cc1 [Compound 61] | 3.446 | 0.0333 | 3.403 | 0.037 |  | IC50 [1]: 52 µM; COX1 10 minutes pge2/pge2d4 area ratio Avg. LLE [1, 3]: 0.214; COX1 10 minutes pge2 area (counts) Avg. LLE [1, 4]: 0.214 |
| CS(=O)(=O)c1ccc(-c2cncc(/C=C\c3cccs3)n2)cc1 [Compound 65] | 4.704 | 0.037 | 4.681 | 0.039 |  | IC50 [1]: 52 µM; COX1 10 minutes pge2/pge2d4 area ratio Avg. LLE [1, 3]: 1.544; COX1 10 minutes pge2 area (counts) Avg. LLE [1, 4]: 1.612; IC50 ([1]; 10 minutes, pge2 area (counts), head of this section not shown, inferred, read-out: COX1 10 minutes pge2 area (counts) Avg. IC50): 38 µM |
| CS(=O)(=O)c1ccc(-c2cccc(OCc3cccs3)n2)nc1 [Compound 37] | 5.44 | 0.0181 | 5.694 | 0.0143 |  | COX1 10 minutes pge2/pge2d4 area ratio Avg. LLE ([1]; 10 minutes, readout pge2/pge2d4 area ratio, average LLE): 2.056; IC50 ([1]; 10 minutes, readout pge2/pge2d4 area ratio, average, read-out: COX1 10 minutes pge2/pge2d4 area ratio Avg. IC50): 39.2 µM; COX1 10 minutes pge2 area (counts) Avg. LLE ([1]; 10 minutes, readout pge2 area (counts), average LLE): 2.13; IC50 ([1]; 10 minutes, readout pge2 area (counts), average, read-out: COX1 10 minutes pge2 area (counts) Avg. IC50): 33.1 µM |
| CCCCOc1cncc(-c2ccc(S(C)(=O)=O)cc2)n1 [Compound 280] | 3.204 |  |  |  | 5.2 | COX2 10 minutes pge2 area (counts) Avg. LLE [2, 9]: 4.508; IC50 [2, 10]: 0.258 µM |
| CS(=O)(=O)c1ccc(-n2ccc3ccc(OCc4cccs4)nc32)cc1 [Compound 122] | 2.212 | 0.127 | 2.325 | 0.095 |  |  |
| CS(=O)(=O)c1ccc(-c2cncc(NCc3ccno3)n2)cc1 [Compound 202] | 5.815 | 1.05 | 5.757 | 1.19 |  |  |
| CSc1ccc(-c2cccc(NCc3ccoc3)n2)cc1 [Compound 295] |  |  |  |  | 5.2 |  |
| Cc1ccc(COc2cncc(-c3ccc(S(C)(=O)=O)cc3)n2)cc1 [Compound 309] |  |  | 2.514 |  | 5.2 |  |
| CS(=O)(=O)c1ccc(-n2ccc3ccc(NCc4ccco4)nc32)cc1 [Compound 125] | 3.017 | 0.141 | 2.953 | 0.174 |  |  |
| CS(=O)(=O)c1ccc(-c2cncc(NC[C@@H]3CCCO3)n2)cc1 [Compound 224] | 4.828 | 1.94 | 4.821 | 1.84 |  |  |
| CN(C)c1cncc(-c2ccc(S(C)(=O)=O)cc2)n1 [Compound 278] | 4.524 |  | 4.672 | 3.7 | 5.2 | COX2 10 minutes pge2 area (counts) Avg. LLE [2, 9]: 4.674; IC50 [2, 10]: 3.68 µM |
| CS(=O)(=O)c1ccc(-c2cccc(Oc3ccccc3)n2)cc1 [Compound 70] |  | 0.0406 |  | 0.0465 |  |  |
| CS(=O)(=O)c1ccc(-c2cncc(N3CCc4ccccc4C3)n2)cc1 [Compound 324] |  |  |  |  | 5.2 |  |
| CS(=O)(=O)c1ccc(-c2cncc(SCc3ccccn3)n2)cc1 [Compound 131] | 5.065 | 0.157 | 5.129 | 0.131 |  |  |
| CS(=O)(=O)c1ccc(-c2cc(NCc3ccco3)ccn2)cc1 [Compound 235] |  | 2.5 |  | 2.15 |  |  |
